According to patent US20260198493A1, “HYDRAZIDE COMPOUND AND AGRICULTURAL/HORTICULTURAL FUNGICIDE” (Nippon Soda Co., Ltd., priority 2022, published 2026):

Experiments:
Fusarium graminearum = assay: microbe, parasite or virus in culture; format: cell-based; details: 96 h, read-out: growth inhibition ratio
[1] = tested on: Erysiphe graminis f.sp.tritici; assay: Control test of wheat powdery mildew disease (sprayed young wheat seedlings); format: in vivo; details: Blumeria graminis, 144 h, 125 ppm by mass spray, six days after inoculation
Colletotrichum acutatum = assay: Fungicidal effect test against fungi causing apple anthracnose; details: 96 h, read-out: growth inhibition ratio
Venturia inaequalis = assay: Control test of apple scab disease (sprayed young apple seedlings); format: in vivo; details: 125 ppm by mass spray, 12 to 14 days after inoculation
Botrytis cinerea [2] = assay: Control test of cucumber gray mold (sprayed young cucumber seedlings); format: in vivo; details: 96 h, four days after inoculation; for pest or weed control at 25 ppm: 25 ppm by mass spray; for pest or weed control at 125 ppm: 125 ppm by mass spray
Method: Then, the drug liquid was sprayed onto young cucumber seedlings cultivated in a nursery pot (variety “Jihai”-based, cotyledon stage), and then air-dried. […] They were left still in a moist room at 20° C. Four days after inoculation, leaves of the young cucumber seedlings were visually observed, and the control value was calculated from the lesion area ratio in accordance with the following equation. [formula]

Botrytis cinerea [3] = format: cell-based; details: 120 h, 25 ppm by volume, Vogel medium, 20° C., five days, dark, read-out: growth inhibition ratio
Glomerella cingulata = assay: Fungicidal effect test against fungi causing grape ripe rot disease; details: Colletotrichum gloeosporioides, 72 h, read-out: growth inhibition ratio

COC(=O)N(Cc1ccc(C)cc1C)NC(=O)c1nc(C)ncc1Oc1cccc(C2CC2)c1F [b-42, Methyl 2-(5-(3-cyclopropyl-2-fluorophenoxy)-2-methylpyrimidine-4-carbonyl)-1-(2,4-dimethylbenzyl)hydrazine-1-carboxylate]
≥ 75%: inhibition of growth at 25 ppm (Fusarium graminearum) | pest or weed control at 125 ppm [1] | inhibition of growth at 25 ppm (Colletotrichum acutatum) | pest or weed control at 125 ppm (Venturia inaequalis) | pest or weed control at 25 ppm (Botrytis cinerea [2]) | pest or weed control at 125 ppm (Botrytis cinerea [2]) | inhibition of growth at 25 ppm (Botrytis cinerea [3]) | inhibition of growth at 25 ppm (Glomerella cingulata)

COC(=O)N(Cc1ccc(C)cc1C)NC(=O)c1cc(C)nnc1Oc1csc(C(F)(F)F)c1 [b-124, Methyl 1-(2,4-dimethylbenzyl)-2-(6-methyl-3-((5-(trifluoromethyl)thiophen-3-yl)oxy)pyridazine-4-carbonyl)hydrazine-1-carboxylate]
≥ 75%: inhibition of growth at 25 ppm (Fusarium graminearum) | pest or weed control at 125 ppm [1] | inhibition of growth at 25 ppm (Colletotrichum acutatum) | pest or weed control at 125 ppm (Venturia inaequalis) | pest or weed control at 125 ppm (Botrytis cinerea [2]) | inhibition of growth at 25 ppm (Botrytis cinerea [3]) | inhibition of growth at 25 ppm (Glomerella cingulata)

COC(=O)N(Cc1ccc(Br)cc1C)NC(=O)c1cc(C)ncc1Oc1cccc(C2CC2)c1F [b-76]
≥ 75%: inhibition of growth at 25 ppm (Fusarium graminearum) | pest or weed control at 125 ppm [1] | inhibition of growth at 25 ppm (Colletotrichum acutatum) | pest or weed control at 125 ppm (Venturia inaequalis) | pest or weed control at 25 ppm (Botrytis cinerea [2]) | pest or weed control at 125 ppm (Botrytis cinerea [2]) | inhibition of growth at 25 ppm (Botrytis cinerea [3]) | inhibition of growth at 25 ppm (Glomerella cingulata)

COC(=O)N(Cc1ccc(C)cc1C)NC(=O)c1c(Br)cncc1Oc1cccc(C2CC2)c1 [b-118]
≥ 75%: inhibition of growth at 25 ppm (Fusarium graminearum) | pest or weed control at 125 ppm [1] | inhibition of growth at 25 ppm (Colletotrichum acutatum) | pest or weed control at 125 ppm (Venturia inaequalis) | pest or weed control at 25 ppm (Botrytis cinerea [2]) | pest or weed control at 125 ppm (Botrytis cinerea [2]) | inhibition of growth at 25 ppm (Botrytis cinerea [3]) | inhibition of growth at 25 ppm (Glomerella cingulata)

CCOC(=O)N(Cc1ccc(C)cc1C)NC(=O)c1nc(C)ncc1Oc1cccc(C2CC2)c1F [b-43]
≥ 75%: inhibition of growth at 25 ppm (Fusarium graminearum) | pest or weed control at 125 ppm [1] | inhibition of growth at 25 ppm (Colletotrichum acutatum) | pest or weed control at 125 ppm (Venturia inaequalis) | pest or weed control at 25 ppm (Botrytis cinerea [2]) | pest or weed control at 125 ppm (Botrytis cinerea [2]) | inhibition of growth at 25 ppm (Botrytis cinerea [3]) | inhibition of growth at 25 ppm (Glomerella cingulata)

COC(=O)N(Cc1ccc(C)cc1C)NC(=O)c1cc(Br)ncc1Oc1cccc(C2CC2)c1F [b-67]
≥ 75%: inhibition of growth at 25 ppm (Fusarium graminearum) | pest or weed control at 125 ppm [1] | inhibition of growth at 25 ppm (Colletotrichum acutatum) | pest or weed control at 125 ppm (Venturia inaequalis) | pest or weed control at 25 ppm (Botrytis cinerea [2]) | pest or weed control at 125 ppm (Botrytis cinerea [2]) | inhibition of growth at 25 ppm (Botrytis cinerea [3]) | inhibition of growth at 25 ppm (Glomerella cingulata)

COC(=O)N(Cc1ccc(C)cc1C)NC(=O)c1cc(C)nnc1Oc1cccc(Br)c1 [b-55]
≥ 75%: inhibition of growth at 25 ppm (Fusarium graminearum) | pest or weed control at 125 ppm [1] | inhibition of growth at 25 ppm (Colletotrichum acutatum) | pest or weed control at 125 ppm (Venturia inaequalis) | pest or weed control at 25 ppm (Botrytis cinerea [2]) | pest or weed control at 125 ppm (Botrytis cinerea [2]) | inhibition of growth at 25 ppm (Botrytis cinerea [3]) | inhibition of growth at 25 ppm (Glomerella cingulata)

COC(=O)N(Cc1ccc(C)cc1C)NC(=O)c1c(Oc2cccc(C3CC3)c2F)nnc(Cl)c1C [b-15]
≥ 75%: inhibition of growth at 25 ppm (Fusarium graminearum) | pest or weed control at 125 ppm [1] | inhibition of growth at 25 ppm (Colletotrichum acutatum) | pest or weed control at 125 ppm (Venturia inaequalis) | pest or weed control at 25 ppm (Botrytis cinerea [2]) | pest or weed control at 125 ppm (Botrytis cinerea [2]) | inhibition of growth at 25 ppm (Botrytis cinerea [3]) | inhibition of growth at 25 ppm (Glomerella cingulata)

COC(=O)N(Cc1ccc(C)cc1C)NC(=O)c1c(Oc2cccc(C3CC3)c2F)nnc2ccccc12 [b-90, Methyl 2-(3-(3-cyclopropyl-2-fluorophenoxy)cinnoline-4-carbonyl)-1-(2,4-dimethylbenzyl)hydrazine-1-carboxylate]
≥ 75%: inhibition of growth at 25 ppm (Fusarium graminearum) | pest or weed control at 125 ppm [1] | inhibition of growth at 25 ppm (Colletotrichum acutatum) | pest or weed control at 125 ppm (Venturia inaequalis) | pest or weed control at 25 ppm (Botrytis cinerea [2]) | pest or weed control at 125 ppm (Botrytis cinerea [2]) | inhibition of growth at 25 ppm (Botrytis cinerea [3]) | inhibition of growth at 25 ppm (Glomerella cingulata)

COC(=O)N(Cc1ccc(C)cc1C)NC(=O)c1ccncc1Oc1cccc(Cl)c1F [b-187]
≥ 75%: inhibition of growth at 25 ppm (Fusarium graminearum) | pest or weed control at 125 ppm [1] | inhibition of growth at 25 ppm (Colletotrichum acutatum) | pest or weed control at 125 ppm (Venturia inaequalis) | pest or weed control at 25 ppm (Botrytis cinerea [2]) | pest or weed control at 125 ppm (Botrytis cinerea [2]) | inhibition of growth at 25 ppm (Botrytis cinerea [3]) | inhibition of growth at 25 ppm (Glomerella cingulata)

COC(=O)N(Cc1ccc(C)cc1C)NC(=O)c1cc(C(F)(F)F)ncc1Oc1cccc(C2CC2)c1F [b-204]
≥ 75%: inhibition of growth at 25 ppm (Fusarium graminearum) | pest or weed control at 125 ppm [1] | inhibition of growth at 25 ppm (Colletotrichum acutatum) | pest or weed control at 125 ppm (Venturia inaequalis) | pest or weed control at 25 ppm (Botrytis cinerea [2]) | pest or weed control at 125 ppm (Botrytis cinerea [2]) | inhibition of growth at 25 ppm (Botrytis cinerea [3]) | inhibition of growth at 25 ppm (Glomerella cingulata)

COC(=O)N(Cc1ccc2c(c1)CCC2)NC(=O)c1cc(C)ncc1Oc1cccc(C2CC2)c1F [b-127]
≥ 75%: inhibition of growth at 25 ppm (Fusarium graminearum) | pest or weed control at 125 ppm [1] | inhibition of growth at 25 ppm (Colletotrichum acutatum) | pest or weed control at 125 ppm (Venturia inaequalis) | pest or weed control at 25 ppm (Botrytis cinerea [2]) | pest or weed control at 125 ppm (Botrytis cinerea [2]) | inhibition of growth at 25 ppm (Botrytis cinerea [3]) | inhibition of growth at 25 ppm (Glomerella cingulata)

COC(=O)N(Cc1ccc(C)cc1C)NC(=O)c1cc(OC)ncc1Oc1cccc(C2CC2)c1F [b-94]
≥ 75%: inhibition of growth at 25 ppm (Fusarium graminearum) | pest or weed control at 125 ppm [1] | inhibition of growth at 25 ppm (Colletotrichum acutatum) | pest or weed control at 125 ppm (Venturia inaequalis) | pest or weed control at 25 ppm (Botrytis cinerea [2]) | pest or weed control at 125 ppm (Botrytis cinerea [2]) | inhibition of growth at 25 ppm (Botrytis cinerea [3]) | inhibition of growth at 25 ppm (Glomerella cingulata)

COC(=O)N(Cc1ccc(OC)cc1C)NC(=O)c1ccncc1Oc1cccc(Br)c1 [b-146]
≥ 75%: inhibition of growth at 25 ppm (Fusarium graminearum) | pest or weed control at 125 ppm [1] | inhibition of growth at 25 ppm (Colletotrichum acutatum) | pest or weed control at 125 ppm (Venturia inaequalis) | pest or weed control at 125 ppm (Botrytis cinerea [2]) | inhibition of growth at 25 ppm (Botrytis cinerea [3]) | inhibition of growth at 25 ppm (Glomerella cingulata)

COC(=O)N(Cc1ccc(OC)cc1C)NC(=O)c1c(Oc2cccc(C3CC3)c2F)nnc(Cl)c1C [b-106]
≥ 75%: inhibition of growth at 25 ppm (Fusarium graminearum) | pest or weed control at 125 ppm [1] | inhibition of growth at 25 ppm (Colletotrichum acutatum) | pest or weed control at 125 ppm (Venturia inaequalis) | pest or weed control at 25 ppm (Botrytis cinerea [2]) | pest or weed control at 125 ppm (Botrytis cinerea [2]) | inhibition of growth at 25 ppm (Botrytis cinerea [3]) | inhibition of growth at 25 ppm (Glomerella cingulata)

COC(=O)N(Cc1ccc(Cl)cc1C)NC(=O)c1cc(C)ncc1Oc1cccc(C2CC2)c1F [b-77]
≥ 75%: inhibition of growth at 25 ppm (Fusarium graminearum) | pest or weed control at 125 ppm [1] | inhibition of growth at 25 ppm (Colletotrichum acutatum) | pest or weed control at 125 ppm (Venturia inaequalis) | pest or weed control at 25 ppm (Botrytis cinerea [2]) | pest or weed control at 125 ppm (Botrytis cinerea [2]) | inhibition of growth at 25 ppm (Botrytis cinerea [3]) | inhibition of growth at 25 ppm (Glomerella cingulata)

COC(=O)N(Cc1ccc(C)cc1C)NC(=O)c1cc(C)ncc1Oc1cccc(Br)c1 [b-31]
≥ 75%: inhibition of growth at 25 ppm (Fusarium graminearum) | pest or weed control at 125 ppm [1] | inhibition of growth at 25 ppm (Colletotrichum acutatum) | pest or weed control at 125 ppm (Venturia inaequalis) | pest or weed control at 25 ppm (Botrytis cinerea [2]) | pest or weed control at 125 ppm (Botrytis cinerea [2]) | inhibition of growth at 25 ppm (Botrytis cinerea [3]) | inhibition of growth at 25 ppm (Glomerella cingulata)

COC(=O)N(Cc1ccc(C)cc1C)NC(=O)c1cc(C)ncc1Oc1cccc(C2CC2)c1F [b-16]
≥ 75%: inhibition of growth at 25 ppm (Fusarium graminearum) | pest or weed control at 125 ppm [1] | inhibition of growth at 25 ppm (Colletotrichum acutatum) | pest or weed control at 125 ppm (Venturia inaequalis) | pest or weed control at 25 ppm (Botrytis cinerea [2]) | pest or weed control at 125 ppm (Botrytis cinerea [2]) | inhibition of growth at 25 ppm (Botrytis cinerea [3]) | inhibition of growth at 25 ppm (Glomerella cingulata)

COC(=O)N(Cc1ccc(C)cc1OC)NC(=O)c1cc(C)nnc1Oc1cccc(C2CC2)c1F [b-153]
≥ 75%: inhibition of growth at 25 ppm (Fusarium graminearum) | pest or weed control at 125 ppm [1] | inhibition of growth at 25 ppm (Colletotrichum acutatum) | pest or weed control at 125 ppm (Venturia inaequalis) | pest or weed control at 25 ppm (Botrytis cinerea [2]) | pest or weed control at 125 ppm (Botrytis cinerea [2]) | inhibition of growth at 25 ppm (Botrytis cinerea [3]) | inhibition of growth at 25 ppm (Glomerella cingulata)

COC(=O)N(Cc1ccc(C)cc1C)NC(=O)c1cc(C)nnc1Oc1cccc(F)c1 [b-112]
≥ 75%: inhibition of growth at 25 ppm (Fusarium graminearum) | pest or weed control at 125 ppm [1] | inhibition of growth at 25 ppm (Colletotrichum acutatum) | pest or weed control at 125 ppm (Venturia inaequalis) | pest or weed control at 125 ppm (Botrytis cinerea [2]) | inhibition of growth at 25 ppm (Botrytis cinerea [3]) | inhibition of growth at 25 ppm (Glomerella cingulata)

COC(=O)N(Cc1ccc(OC)cc1C)NC(=O)c1ccncc1Oc1cccc(Br)c1F [b-148]
≥ 75%: inhibition of growth at 25 ppm (Fusarium graminearum) | pest or weed control at 125 ppm [1] | inhibition of growth at 25 ppm (Colletotrichum acutatum) | pest or weed control at 125 ppm (Venturia inaequalis) | pest or weed control at 25 ppm (Botrytis cinerea [2]) | pest or weed control at 125 ppm (Botrytis cinerea [2]) | inhibition of growth at 25 ppm (Botrytis cinerea [3]) | inhibition of growth at 25 ppm (Glomerella cingulata)

COC(=O)N(Cc1ccc(C)cc1C)NC(=O)c1cc(C)nnc1Oc1cccc(Cl)c1F [b-23, Methyl 2-(3-(3-chloro-2-fluorophenoxy)-6-methylpyridazine-4-carbonyl)-1-(2,4-dimethylbenzyl)hydrazine-1-carboxylate]
≥ 75%: inhibition of growth at 25 ppm (Fusarium graminearum) | pest or weed control at 125 ppm [1] | inhibition of growth at 25 ppm (Colletotrichum acutatum) | pest or weed control at 125 ppm (Venturia inaequalis) | pest or weed control at 25 ppm (Botrytis cinerea [2]) | pest or weed control at 125 ppm (Botrytis cinerea [2]) | inhibition of growth at 25 ppm (Botrytis cinerea [3]) | inhibition of growth at 25 ppm (Glomerella cingulata)
